The assay deals with APJ Receptor. The experiment in a line: In vivo investigations of the stimulation of the APJ receptor by apelin in anesthetized dogs (blood pressure, heart rate, coronary flow). As for the experimental part:
Adult FBI (Foxhound-Beagle-Irish-Setter) dogs (20-30 kg) are initially anesthetized with thiopental Na (Trapanal, Byk-Gulden) 20-30 mg/kg i.v. Alcuronium chloride (Alloferin, Roche) 0.1 mg/kg is initially given i.v. for muscle relaxation. The animals are intubated and ventilated with a ⅓ O2/N2O mixture using an Engström respiratory pump with 15-18 breaths per min and a volume of 18-24 ml/kg. The ventilation is set accurately according to the arterial partial pressure of CO2, maintaining an average pCO2 of 35-45 mmHg. The maintenance anesthesia is done with isoflurane (Baxter) 1.5-3%. The body temperature is kept at 38° C.±0.1° C. The arterial blood pressure is measured via a catheder in the femoral artery. A thoracotomy is performed at the fifth intercostal space on the left side. The lung is retracted and fixed, and the pericardium is incised. A proximal section of the LAD (left coronary artery) distal to the first diagonal branch is exposed, and a calibrated electromagnetic flow probe (Gould Statham, model SP7515) is placed around the vessel and connected to a flowmeter (Statham, model SP-2202). A mechanical occluder is attached distal of the flow probe in such a way that no branches lie between flow probe and occluder.
Blood is taken and substances are administered through a catheder in the femoral vein. A peripheral ECG is recorded with subcutaneously fixed needles. A microtip pressure manometer (Millar model PC-350) is pushed through the left atrium in order to measure the left ventricular pressure. Measurement of the heart rate is controlled by the R wave of the ECG. The hemodynamic parameters and the coronary flow are recorded on a multichannel recorder throughout the experiment.
The experiment is started after a stabilization time of 1 hour. […] The heart rate, blood pressure and coronary flow are recorded and analyzed.

In the case of apelin, the coronary flow result by setting is: (10 μg/kg i.v. bolus) “significant increase in the coronary flow”; (infusion 1, 3, 5, 10 μg/kg/min for 10 min) “dose-dependent increase in coronary flow”. Further, under “bolus and continuous infusion”, the heart rate result is reported as “without changing the heart rate”. Also, the blood pressure result (bolus and infusion) is recorded as “reduction in the blood pressure”. In addition, the “infusion rate at which maximum increase in coronary flow is reached” value (infusion for 10 min) was determined as 3 µg/kg/min.

The values are drawn from US20050075275A1, “Regulation of the apj receptor for use in the treatment or prophylaxis of cardiac diseases” (Bayer Aktiengesellschaft, priority 2001, published 2005).
